Like-named read-outs stand apart in the source and are kept apart here. Where a SMILES comes first, the peptide text is derived from it. Bridges are numbered along the chain shown (N, C = ends). [ ]: non-standard residue; d: D form. The star is where a group is joined. 2Nal = N[C@@H](Cc1ccc2ccccc2c1)C(=O)O; Benzoyl(4-F) = O=C(c1ccc(F)cc1)*; Cit = NC(=O)NCCC[C@H](N)C(=O)O
Tests used:
Format in all cases: cell-based
CXCR4 = target: T1, CXCR4 (Homo sapiens, UniProt P61073); test: Calcium mobilization assay in MDA-MB-231 cells expressing CXCR4 alone; conditions: cells expressing CXCR4 alone; CXCR4 inhibitor only; stimulated with CXCL12 20 nM and Salmeterol 1 μM; read-out: CXCR4 IC50 of Ca2+ response
T1 construct: expressed in transfected cells
T1 sequence (P61073 whole entry): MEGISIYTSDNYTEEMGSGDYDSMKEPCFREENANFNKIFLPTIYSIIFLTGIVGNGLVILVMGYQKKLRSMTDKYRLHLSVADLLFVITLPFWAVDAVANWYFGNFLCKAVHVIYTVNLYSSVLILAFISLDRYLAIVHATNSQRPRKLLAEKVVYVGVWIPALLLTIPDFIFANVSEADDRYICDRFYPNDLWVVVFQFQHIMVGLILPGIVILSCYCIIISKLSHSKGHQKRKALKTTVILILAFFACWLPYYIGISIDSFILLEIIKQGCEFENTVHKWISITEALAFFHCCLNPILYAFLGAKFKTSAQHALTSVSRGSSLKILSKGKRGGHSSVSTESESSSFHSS
Method: The cells were then stained with Cal-6 for 2 hours and stimulated with CXCR4 agonsit (CXCL12; 20 nM) and ADRB2 agonist (Salmeterol; 1 μM).

CXCR4-MLNR heteromer = target: T2, CXCR4-MLNR heteromer (Homo sapiens, UniProt O43193+P61073); test: Calcium mobilization assay, enhanced signaling of CXCR4-MLNR heteromer in MDA-MB-231 cells; conditions: CXCR4 inhibitor only; CXCL12 20 nM and motilin 0.2 nM; read-out: IC50 of Ca2+ response, MLNR inhibitor: None
T2 construct: expressed in transfected cells
T2 sequence (P61073 whole entry): as above
T2 sequence (O43193 whole entry): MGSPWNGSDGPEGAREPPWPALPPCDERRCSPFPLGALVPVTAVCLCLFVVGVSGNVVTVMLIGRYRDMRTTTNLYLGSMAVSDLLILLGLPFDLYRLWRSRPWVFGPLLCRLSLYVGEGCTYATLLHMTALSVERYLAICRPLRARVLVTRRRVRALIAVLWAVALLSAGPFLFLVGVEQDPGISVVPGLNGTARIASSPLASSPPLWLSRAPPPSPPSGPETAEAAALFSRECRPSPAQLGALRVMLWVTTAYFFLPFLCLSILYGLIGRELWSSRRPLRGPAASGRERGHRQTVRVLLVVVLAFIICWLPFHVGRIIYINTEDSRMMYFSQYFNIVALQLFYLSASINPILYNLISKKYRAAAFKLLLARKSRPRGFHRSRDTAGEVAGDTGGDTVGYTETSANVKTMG
Method: (§1) Inhibitors were treated 30 min before agonist stimulation. Ca2+ mobilization was measured as described in FIG. 5, and IC50 values were calculated using GraphPad Prism software.

CXCR4-EDNRB heteromer = target: T3, CXCR4-EDNRB heteromer (Homo sapiens, UniProt P24530+P61073); test: Calcium mobilization assay, enhanced signaling of CXCR4-EDNRB heteromer in MDA-MB-231 cells; conditions: CXCR4 inhibitor only; CXCL12 20 nM and BQ3020 0.5 nM; read-out: IC50 of Ca2+ response, EDNRB inhibitor: None
T3 construct: expressed in transfected cells
T3 sequence (P61073 whole entry): as the sequence (P61073 whole entry) above
T3 sequence (P24530 27-442): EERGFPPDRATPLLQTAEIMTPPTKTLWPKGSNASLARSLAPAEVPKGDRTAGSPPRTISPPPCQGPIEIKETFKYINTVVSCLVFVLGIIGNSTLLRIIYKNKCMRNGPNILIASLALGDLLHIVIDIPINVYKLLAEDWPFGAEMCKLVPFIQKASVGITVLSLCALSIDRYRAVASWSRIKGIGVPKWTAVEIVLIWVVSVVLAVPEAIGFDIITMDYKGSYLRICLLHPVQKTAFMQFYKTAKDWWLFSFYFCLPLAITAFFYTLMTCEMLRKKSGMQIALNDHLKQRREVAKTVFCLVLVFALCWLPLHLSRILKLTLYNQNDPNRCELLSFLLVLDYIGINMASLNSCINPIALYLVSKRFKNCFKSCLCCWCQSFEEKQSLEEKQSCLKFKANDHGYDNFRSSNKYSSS
Method: (§2) The efficiency of CXCR4 inhibitors in suppressing the enhanced signaling of CXCR4-EDNRB heteromer was measured in the absence or presence of the representative EDNRB inhibitors ambrisentan or bosentan (Table 12). […] Inhibitors were treated 30 min before agonist stimulation. Ca2+ mobilization was measured as described in FIG. 5, and IC50 values were calculated using GraphPad Prism software.

CXCR4-C5AR1 heteromer = target: T4, CXCR4-C5AR1 heteromer (Homo sapiens, UniProt P21730+P61073); test: Calcium mobilization assay, enhanced signaling of CXCR4-C5AR1 heteromer in MDA-MB-231 cells; conditions: CXCR4 inhibitor only; CXCL12 20 nM and C5a 0.03 nM; read-out: IC50 of Ca2+ response, C5AR1 inhibitor: None
T4 construct: expressed in transfected cells
T4 sequence (P61073 whole entry): as the sequence (P61073 whole entry) above
T4 sequence (P21730 whole entry): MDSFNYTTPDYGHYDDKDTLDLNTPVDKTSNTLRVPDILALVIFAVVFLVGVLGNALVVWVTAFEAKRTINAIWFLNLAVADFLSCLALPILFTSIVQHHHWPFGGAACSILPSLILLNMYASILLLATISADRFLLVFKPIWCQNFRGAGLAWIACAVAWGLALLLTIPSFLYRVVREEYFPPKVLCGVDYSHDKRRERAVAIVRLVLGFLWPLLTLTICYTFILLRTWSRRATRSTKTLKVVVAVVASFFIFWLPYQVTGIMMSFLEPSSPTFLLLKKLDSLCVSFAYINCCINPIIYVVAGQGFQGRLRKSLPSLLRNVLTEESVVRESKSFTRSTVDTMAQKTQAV
Method: as §1

[1] = target: CXCR4-ADCYAP1R1 heteromer (Homo sapiens, UniProt P41586+P61073); test: Calcium mobilization assay, enhanced signaling of CXCR4-ADCYAP1R1 heteromer in MDA-MB-231 cells; conditions: CXCR4 inhibitor only; CXCL12 20 nM and PACAP-38 1 nM; read-out: IC50 of Ca2+ response, ADCYAP1R1 inhibitor: None
Chain of CXCR4-ADCYAP1R1 heteromer (P61073 whole entry): as the sequence (P61073 whole entry) above
Chain of CXCR4-ADCYAP1R1 heteromer (P41586 21-468): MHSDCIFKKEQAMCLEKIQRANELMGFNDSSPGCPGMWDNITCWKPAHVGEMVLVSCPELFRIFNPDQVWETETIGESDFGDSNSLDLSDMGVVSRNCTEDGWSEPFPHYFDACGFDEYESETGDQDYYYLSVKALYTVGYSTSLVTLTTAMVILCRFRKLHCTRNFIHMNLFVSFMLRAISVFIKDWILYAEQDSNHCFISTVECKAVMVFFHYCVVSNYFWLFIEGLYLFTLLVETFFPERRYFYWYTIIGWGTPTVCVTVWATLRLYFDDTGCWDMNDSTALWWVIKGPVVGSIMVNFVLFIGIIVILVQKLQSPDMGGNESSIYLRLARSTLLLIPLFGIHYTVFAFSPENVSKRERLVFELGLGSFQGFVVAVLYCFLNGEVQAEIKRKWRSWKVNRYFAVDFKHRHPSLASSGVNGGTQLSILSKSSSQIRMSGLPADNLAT
Method: as §1

CXCR4-ADRB2 heteromer = target: T5, CXCR4-ADRB2 heteromer (Homo sapiens, UniProt P07550+P61073); test: Calcium mobilization assay, enhanced signaling of CXCR4-ADRB2 heteromer in MDA-MB-231 cells; conditions: CXCR4 inhibitor only
T5 construct: expressed in transfected cells
T5 sequence (P61073 whole entry): as the sequence (P61073 whole entry) above
T5 sequence (P07550 whole entry): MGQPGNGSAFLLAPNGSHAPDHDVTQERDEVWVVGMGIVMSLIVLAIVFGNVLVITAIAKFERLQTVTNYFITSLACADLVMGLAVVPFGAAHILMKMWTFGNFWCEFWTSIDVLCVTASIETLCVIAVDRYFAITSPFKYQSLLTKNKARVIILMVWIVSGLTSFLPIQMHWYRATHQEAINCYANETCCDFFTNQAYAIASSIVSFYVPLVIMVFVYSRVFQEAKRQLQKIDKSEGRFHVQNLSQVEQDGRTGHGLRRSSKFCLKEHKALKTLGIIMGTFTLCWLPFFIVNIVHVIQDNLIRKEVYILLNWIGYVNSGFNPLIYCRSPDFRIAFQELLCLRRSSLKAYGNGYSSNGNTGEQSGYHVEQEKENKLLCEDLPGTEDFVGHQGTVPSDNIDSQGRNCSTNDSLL

CXCR4-HRH1 heteromer = target: T6, CXCR4-HRH1 heteromer (Homo sapiens, UniProt P35367+P61073); test: Calcium mobilization assay, enhanced signaling of CXCR4-HRH1 heteromer in MDA-MB-231 cells; conditions: CXCR4 inhibitor only; CXCL12 20 nM and Histamine 1 nM; read-out: IC50 of Ca2+ response, HRH1 inhibitor: None
T6 construct: expressed in transfected cells
T6 sequence (P61073 whole entry): as the sequence (P61073 whole entry) above
T6 sequence (P35367 whole entry): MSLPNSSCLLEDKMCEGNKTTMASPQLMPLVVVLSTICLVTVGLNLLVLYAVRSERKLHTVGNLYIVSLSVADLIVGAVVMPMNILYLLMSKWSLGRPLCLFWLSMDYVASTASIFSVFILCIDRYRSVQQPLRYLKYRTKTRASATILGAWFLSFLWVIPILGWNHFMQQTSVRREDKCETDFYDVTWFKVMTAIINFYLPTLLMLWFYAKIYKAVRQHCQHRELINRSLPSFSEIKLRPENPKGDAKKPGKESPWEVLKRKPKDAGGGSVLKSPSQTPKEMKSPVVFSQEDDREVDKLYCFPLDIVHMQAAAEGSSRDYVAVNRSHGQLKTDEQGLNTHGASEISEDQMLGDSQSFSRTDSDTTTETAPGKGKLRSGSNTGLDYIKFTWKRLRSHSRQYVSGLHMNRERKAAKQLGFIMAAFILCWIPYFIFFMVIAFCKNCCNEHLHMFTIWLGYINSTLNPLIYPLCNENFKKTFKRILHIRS
Method: as §2, with “CXCR4-HRH1” for “CXCR4-EDNRB”, “HRH1” for “EDNRB”, “Hydroxyzine, Prometazine,” for “ambrisentan”, “Cyproheptadine” for “bosentan”, “8).” for “12).”

CXCR4-TACR3 heteromer = target: T7, CXCR4-TACR3 heteromer (Homo sapiens, UniProt P29371+P61073); test: Calcium mobilization assay, enhanced signaling of CXCR4-TACR3 heteromer in MDA-MB-231 cells; conditions: CXCR4 inhibitor only; CXCL12 20 nM and neurokinin B 0.3 nM; read-out: IC50 of Ca2+ response, TACR3 inhibitor: None
T7 construct: expressed in transfected cells
T7 sequence (P61073 whole entry): as the sequence (P61073 whole entry) above
T7 sequence (P29371 whole entry): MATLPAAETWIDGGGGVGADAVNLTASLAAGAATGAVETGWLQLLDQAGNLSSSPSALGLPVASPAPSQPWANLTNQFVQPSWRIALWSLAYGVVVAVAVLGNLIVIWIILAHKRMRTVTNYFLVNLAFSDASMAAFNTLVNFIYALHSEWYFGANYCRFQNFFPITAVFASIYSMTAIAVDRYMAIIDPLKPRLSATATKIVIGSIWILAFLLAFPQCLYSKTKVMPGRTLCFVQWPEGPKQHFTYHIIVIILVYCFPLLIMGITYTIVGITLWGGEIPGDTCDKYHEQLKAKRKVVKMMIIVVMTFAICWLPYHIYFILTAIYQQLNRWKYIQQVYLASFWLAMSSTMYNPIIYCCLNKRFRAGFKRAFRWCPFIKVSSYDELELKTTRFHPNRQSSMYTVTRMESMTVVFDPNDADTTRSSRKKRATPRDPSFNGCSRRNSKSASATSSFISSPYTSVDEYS
Method: as §1

CXCR4-CALCR heteromer = CXCR4-CALCR heteromer (Homo sapiens, UniProt P30988+P61073); test: Calcium mobilization assay, enhanced signaling of CXCR4-CALCR heteromer in MDA-MB-231 cells; conditions: CXCR4 inhibitor only; CXCL12 20 nM and calcitonin 100 nM; read-out: IC50 of Ca2+ response, CALCR inhibitor: None
Chain of CXCR4-CALCR heteromer (P61073 whole entry): as the sequence (P61073 whole entry) above
Chain of CXCR4-CALCR heteromer (P30988 25-474): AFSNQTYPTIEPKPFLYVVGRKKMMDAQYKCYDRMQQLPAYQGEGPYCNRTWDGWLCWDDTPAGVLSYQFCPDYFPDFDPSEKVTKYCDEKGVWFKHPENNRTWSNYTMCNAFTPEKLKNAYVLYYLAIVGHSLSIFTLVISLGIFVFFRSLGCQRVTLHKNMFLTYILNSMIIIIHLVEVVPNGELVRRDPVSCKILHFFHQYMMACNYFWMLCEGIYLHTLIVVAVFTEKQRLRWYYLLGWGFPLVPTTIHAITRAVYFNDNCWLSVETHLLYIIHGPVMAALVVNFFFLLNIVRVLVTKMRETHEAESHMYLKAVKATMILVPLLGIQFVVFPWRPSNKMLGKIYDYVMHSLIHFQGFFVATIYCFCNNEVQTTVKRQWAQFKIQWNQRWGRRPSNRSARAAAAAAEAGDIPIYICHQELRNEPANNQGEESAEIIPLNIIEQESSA
Method: as §1

- IC50 (CXCR4): 0.434 ± 0.00438 µM
- IC50 (CXCR4-MLNR heteromer): 0.644 ± 0.163 µM
- IC50 (CXCR4-EDNRB heteromer): 2.68 ± 3.93 µM
- IC50 (CXCR4-C5AR1 heteromer): 0.118 ± 0.0565 µM
- IC50 [1]: 0.213 ± 0.143 µM
- IC50 (CXCR4-ADRB2 heteromer; CXCR4 + ADRB2 (−Carvedilol) IC50 of Ca2+ response, stimulated with CXCL12 20 nM and Salmeterol 1 μM): 0.13 ± 0.0498 µM
- IC50 (CXCR4-ADRB2 heteromer; Table 7, CXCL12 20 nM and Salmeterol 1 μM, read-out: IC50 of Ca2+ response, ADRB2 inhibitor: None): 0.124 ± 0.0769 µM
- IC50 (CXCR4-HRH1 heteromer): 0.232 ± 0.0919 µM
- IC50 (CXCR4-TACR3 heteromer): 1.5 ± 0.42 µM
- IC50 (CXCR4-CALCR heteromer): 1.04 ± 0.757 µM
SMILES: N=C(N)NCCC[C@H](NC(=O)[C@@H]1CSSC[C@H](NC(=O)[C@H](Cc2ccc3ccccc3c2)NC(=O)[C@H](CCCNC(=N)N)NC(=O)[C@H](CCCNC(=N)N)NC(=O)c2ccc(F)cc2)C(=O)N[C@@H](Cc2ccc(O)cc2)C(=O)N[C@@H](CCCNC(N)=O)C(=O)N[C@@H](CCCCN)C(=O)N[C@H](CCCCN)C(=O)N2CCC[C@H]2C(=O)N[C@@H](Cc2ccc(O)cc2)C(=O)N[C@@H](CCCNC(=N)N)C(=O)N[C@@H](CCCNC(N)=O)C(=O)N1)C(N)=O [BKT140] ({Benzoyl(4-F)}-RR[2Nal]CY[Cit]K[dK]PYR[Cit]CR-NH2; disulfide 4-13; C-terminus assumed)
